Test system in one series: not given
Test: not given
Details: not given
For `Cc1nc(-c2cnc3[nH]cc(C(=O)N[C@@H](C(=O)N4CC(C#N)C4)C(C)(C)C)c3n2)cn1-c1cc(F)cc(F)c1` [Example 136, 2-[1-(3,5-Difluoro-phenyl)-2-methyl-1H-imidazol-4-yl]-5H-pyrrolo[2,3-b]pyrazine-7-carboxylic acid [(R)-1-(3-cyano-azetidine-1-carbonyl)-2,2-dimethyl-propyl]-amide], the melting point was in the range of 187 to 190 °C.
Same read-out and setting: under `Cc1nc(-c2cnc3[nH]cc(C(=O)N[C@@H](C(=O)N4CC(C#N)C4)C(C)(C)C)c3n2)cn1-c1cccc(F)c1` [Example 137, 2-[1-(3-Fluorophenyl)-2-methyl-1H-imidazol-4-yl]-5H-pyrrolo[2,3-b]pyrazine-7-carboxylic acid [(R)-1-(3-cyano-azetidine-1-carbonyl)-2,2-dimethyl-propyl]-amide] stands 171 to 176 °C; under `N#CC1CN(C(=O)[C@H](NC(=O)c2c[nH]c3ncc(-c4ccccc4)nc23)C2CC2)C1` [Example 147, 2-Phenyl-5H-pyrrolo[2,3-b]pyrazine-7-carboxylic acid [(R)-2-(3-cyano-azetidin-1-yl)-1-cyclopropyl-2-oxo-ethyl]-amide], 200 to 202 °C.
Same read-out and setting: in the case of `CC(=O)N1CCN(c2ccc(-c3cnc4[nH]cc(C(=O)N[C@@H](C(=O)N5CC(C#N)C5)C5CC5)c4n3)cc2)CC1` [Example 143, 2-[4-(4-Acetyl-piperazin-1-yl)-phenyl]-5H-pyrrolo[2,3-b]pyrazine-7-carboxylic acid [(R)-2-(3-cyano-azetidin-1-yl)-1-cyclopropyl-2-oxo-ethyl]-amide] it was 185 to 188 °C; in that of `CC(C)(C)[C@@H](NC(=O)c1c[nH]c2ncc(C3CC3)nc12)C(=O)N1CCCC1` [Example 1, 2-Cyclopropyl-5H-pyrrolo[2,3-b]pyrazine-7-carboxylic acid [(R)-2,2-dimethyl-1-(pyrrolidine-1-carbonyl)-propyl]-amide], 201 to 203 °C.
In the case of `CC[C@@H](NC(=O)c1c[nH]c2ncc(C3CC3)nc12)C(=O)N1CCCC1` [Example 23, 2-Cyclopropyl-5H-pyrrolo[2,3-b]pyrazine-7-carboxylic acid [(R)-1-(pyrrolidine-1-carbonyl)-propyl]-amide], the melting point was in the range of 240.9 to 242.5 °C.
Same read-out and setting: under `N#CC1CN(C(=O)[C@H](NC(=O)c2c[nH]c3ncc(-c4ccc(N5CCOCC5)cc4)nc23)C2CC2)C1` [Example 145, 2-(4-Morpholin-4-yl-phenyl)-5H-pyrrolo[2,3-b]pyrazine-7-carboxylic acid [(R)-2-(3-cyano-azetidin-1-yl)-1-cyclopropyl-2-oxo-ethyl]-amide] stands 186 to 192 °C.

For the next series, the target named is T1, h-jak3(810-1124) (JAK3: Recombinant human kinase domain) (Homo sapiens, UniProt P52333).
T1 construct: jak3(810- 1124)-sf9-c; made in house; host or cells: Sf9
T1 sequence (P52333 810-1124): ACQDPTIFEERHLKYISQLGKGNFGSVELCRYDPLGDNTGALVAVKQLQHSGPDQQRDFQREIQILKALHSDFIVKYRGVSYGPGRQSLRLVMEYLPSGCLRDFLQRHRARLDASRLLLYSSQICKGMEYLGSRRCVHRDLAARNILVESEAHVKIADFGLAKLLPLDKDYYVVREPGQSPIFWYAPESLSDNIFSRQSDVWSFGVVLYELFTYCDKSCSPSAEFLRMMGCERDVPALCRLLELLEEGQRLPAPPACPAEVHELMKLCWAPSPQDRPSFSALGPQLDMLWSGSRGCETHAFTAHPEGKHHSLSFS
Kind of series: Determination of IC50 of Janus Kinase (JAK) inhibition: JAK3 radioactive end-point 33P-ATP kinase assay. Particulars: no additive; ATP 1.5 uM, peptide 50 uM, 20 minutes, room temperature; read-out: Ic50 h-jak3(810-1124)-sf9-c: no additive. In kind it is biochemical.
Source text: Determination of IC50 of Janus Kinase (JAK) Inhibition:
Enzymes and peptide substrate used are described below: • JAK1: Recombinant human kinase domain from Invitrogen (Cat # PV4774) • JAK3: Recombinant human kinase domain from Millipore (Cat # 14-629) or prepared. • JAK2: Recombinant human kinase domain from Millipore (Cat # 14-640) • Substrate: N-terminally biotinylated 14-mer peptide derived from activation loop of JAK1 with sequence of the peptide substrate: Biotin-[sequence]
Assay conditions— used are described below: • Assay Buffer: JAK Kinase Buffer: 50 mM Hepes [pH 7.2], 10 mM MgCl2, 1 mM DTT, 1 mg/ml BSA. The assay was carried out in this buffer. • Assay Format The kinase activity of all three JAK kinases was measured using a radioactive, end-point assay and with trace amounts of ^33P-ATP. The assays were carried out in 96-well polypropylene plates. Experimental Method:
All concentrations were final in the reaction mixture and all incubations were carried at room temperature. […] Final concentration of DMSO in the reaction was 10%. • 2) Compounds were preincubated with enzyme (0.5 nM JAK3 (commercially available), 0.2 nM JAK3 (prepared), 1 nM JAK2, 5 nM JAK1) for 10 minutes. • 3) Reactions were initiated by the addition of a cocktail of the two substrates (ATP and peptide premixed in the JAK Kinase Buffer). In the JAK2/JAK3 assays, ATP and the peptide were used at concentrations of 1.5 uM and 50 uM, respectively. JAK1 assay was carried out at an ATP concentration of 10 uM and a peptide concentration of 50 uM. • 4) The duration of the assay for JAK2 and JAK3 is 20 minutes. JAK1 assay was carried out for 40 minutes. With all three enzymes, reactions were terminated by the addition of 0.5M EDTA to a final concentration of 100 mM. • 5) 25 ul of terminated reactions were transferred to 150 ul of a 7.5% (v/v) slurry of streptavidin-coated sepharose beads in MgCl2- and CaCl2-free 1× Phosphate Buffered Saline containing 50 mM of EDTA in 96-well, 1.2 um MultiScreen-BV filter plates. • 6) After a 30-minute incubation, the beads were washed under vacuum with the following buffers: • a. 3 to 4 washes with 200 ul of 2M NaCl. • b. 3 to 4 washes with 200 ul of 2M NaCl plus 1% (v/v) phosphoric acid. • c. 1 wash with water. • 7) Washed plates were dried in a 60° C. oven for between 1 to 2 hours. • 8) 70 ul of Microscint 20 scintillation fluid was added to each well of filter plates and after at least 30 minutes of incubation, radioactive counts were measured in a Perkinelmer microplate scintillation counter.
On to `O=C(NC(C(=O)N1CCCC1)C(F)(F)F)c1c[nH]c2ncc(C3CC3)nc12` (centres unmarked) [Example I-19, 2-Cyclopropyl-5H-pyrrolo[2,3-b]pyrazine-7-carboxylic acid [2,2,2-trifluoro-1-(pyrrolidine-1-carbonyl)-ethyl]-amide], for which the IC50 was found to be 27 nM.
Still for that read-out and setting: under `CC(C)(C)[C@@H](NC(=O)c1c[nH]c2ncc(C3CC3)nc12)C(=O)N1CCc2ncccc2C1` [Example I-135, 2-Cyclopropyl-5H-pyrrolo[2,3-b]pyrazine-7-carboxylic acid [(R)-1-(7,8-dihydro-5H-[1,6]naphthyridine-6-carbonyl)-2,2-dimethyl-propyl]-amide] stands 6.11 nM.
On the same count and under the same terms, in the case of `N#CC1CN(C(=O)[C@H](NC(=O)c2c[nH]c3ncc(-c4cn(-c5cc(F)ccc5F)cn4)nc23)C2CC2)C1` [Example I-132, 2-[1-(2,5-Difluoro-phenyl)-1H-imidazol-4-yl]-5H-pyrrolo[2,3-b]pyrazine-7-carboxylic acid [(R)-2-(3-cyano-azetidin-1-yl)-1-cyclopropyl-2-oxo-ethyl]-amide] it was 0.49 nM; in that of `N#CC1CN(C(=O)[C@H](NC(=O)c2c[nH]c3ncc(-c4cc5nccc(N6CCCC6)c5s4)nc23)C2CC2)C1` [Example I-97, 2-(7-Pyrrolidin-1-yl-thieno[3,2-b]pyridin-2-yl)-5H-pyrrolo[2,3-b]pyrazine-7-carboxylic acid [(R)-2-(3-cyano-azetidin-1-yl)-1-cyclopropyl-2-oxo-ethyl]-amide], 3.91 nM; in that of `CC(C)(C)[C@@H](NC(=O)c1c[nH]c2ncc(OCCC(F)(F)F)nc12)C(=O)N1CCC(C#N)CC1` [Example I-91, 2-(3,3,3-Trifluoro-propoxy)-5H-pyrrolo[2,3-b]pyrazine-7-carboxylic acid [(R)-1-(4-cyano-piperidine-1-carbonyl)-2,2-dimethyl-propyl]-amide], 17 nM.
On the same count and under the same terms, under `C[C@@H](NC(=O)c1c[nH]c2ncc(-c3cccc(N4CCCC4)c3)nc12)C(=O)N1CC(C#N)C1` [Example I-109, 2-(3-Pyrrolidin-1-yl-phenyl)-5H-pyrrolo[2,3-b]pyrazine-7-carboxylic acid [(R)-2-(3-cyano-azetidin-1-yl)-1-methyl-2-oxo-ethyl]-amide] stands 0.61 nM; under `Cn1cc(-c2cnc3[nH]cc(C(=O)N[C@@H](C(=O)N4CC(F)(F)C4)C4CC4)c3n2)cn1` [Example I-150, 2-(1-Methyl-1H-pyrazol-4-yl)-5H-pyrrolo[2,3-b]pyrazine-7-carboxylic acid [(R)-1-cyclopropyl-2-(3,3-difluoro-azetidin-1-yl)-2-oxo-ethyl]-amide], 2 nM; under `CC(C)(C)[C@@H](NC(=O)c1c[nH]c2ncc(-c3ccccn3)nc12)C(=O)N1CCC(C#N)CC1` [Example I-115, 2-Pyridin-2-yl-5H-pyrrolo[2,3-b]pyrazine-7-carboxylic acid [(R)-1-(4-cyano-piperidine-1-carbonyl)-2,2-dimethyl-propyl]-amide], 2.92 nM.
In the case of `CC(C)(C)[C@@H](NC(=O)c1c[nH]c2ncc(-c3cnn(C4CC4)c3)nc12)C(=O)N1CCC(C#N)CC1` [Example I-78, 2-(1-Cyclopropyl-1H-pyrazol-4-yl)-5H-pyrrolo[2,3-b]pyrazine-7-carboxylic acid [(R)-1-(4-cyano-piperidine-1-carbonyl)-2,2-dimethyl-propyl]-amide], the IC50 is ≤ 0.32 nM.
On the same count and under the same terms, under `CC(C)(C)[C@@H](NC(=O)c1c[nH]c2ncc(-c3cnn(CC(F)(F)F)c3)nc12)C(=O)N1CCC(C#N)CC1` [Example I-79, 2-[1-(2,2,2-Trifluoro-ethyl)-1H-pyrazol-4-yl]-5H-pyrrolo[2,3-b]pyrazine-7-carboxylic acid [(R)-1-(4-cyano-piperidine-1-carbonyl)-2,2-dimethyl-propyl]-amide] stands ≤ 0.32 nM; under `CCn1cc(-c2cnc3[nH]cc(C(=O)N[C@@H](C(=O)N4CCC(F)(C5=NCCN5)C4)C(C)(C)C)c3n2)cn1` (stereo partly drawn) [Example I-38, 2-(1-Ethyl-1H-pyrazol-4-yl)-5H-pyrrolo[2,3-b]pyrazine-7-carboxylic acid {(R)-1-[3-(4,5-dihydro-1H-imidazol-2-yl)-3-fluoro-pyrrolidine-1-carbonyl]-2,2-dimethyl-propyl}-amide], 2.79 nM.
The same measure, in the same setting: under `N#CC1CCN(C(=O)[C@@H](CC2CC2)NC(=O)c2c[nH]c3ncc(C4CC4)nc23)CC1` [Example I-116, 2-Cyclopropyl-5H-pyrrolo[2,3-b]pyrazine-7-carboxylic acid [(R)-2-(4-cyano-piperidin-1-yl)-1-cyclopropylmethyl-2-oxo-ethyl]-amide] stands 2.73 nM.
`CC(C)(C)[C@@H](NC(=O)c1c[nH]c2ncc(-c3ccc(C(F)(F)F)cc3)nc12)C(=O)N1CCC(C#N)CC1` [Example I-128, 2-(4-Trifluoromethyl-phenyl)-5H-pyrrolo[2,3-b]pyrazine-7-carboxylic acid [(R)-1-(4-cyano-piperidine-1-carbonyl)-2,2-dimethyl-propyl]-amide]: the IC50 came out at 2.81 nM.
On the same count and under the same terms, under `CC(C)(C)[C@@H](NC(=O)c1c[nH]c2ncc(C3CC3)nc12)C(=O)N1CCc2ccccc21` [Example I-138, 2-Cyclopropyl-5H-pyrrolo[2,3-b]pyrazine-7-carboxylic acid [(R)-1-(2,3-dihydro-indole-1-carbonyl)-2,2-dimethyl-propyl]-amide] stands 19.1 nM.
With `N#CC1CN(C(=O)[C@H](NC(=O)c2c[nH]c3ncc(N4Cc5c(Cl)cccc5C4=O)nc23)C2CC2)C1` [Example I-95, 2-(4-Chloro-1-oxo-1,3-dihydro-isoindol-2-yl)-5H-pyrrolo[2,3-b]pyrazine-7-carboxylic acid [(R)-2-(3-cyano-azetidin-1-yl)-1-cyclopropyl-2-oxo-ethyl]-amide], the IC50 came to 2.73 nM.
On the same count and under the same terms, under `CC(C)(C)[C@@H](NC(=O)c1c[nH]c2ncc(C3CC3)nc12)C(=O)N1CCC(C(F)(F)F)CC1` [Example I-58, 2-Cyclopropyl-5H-pyrrolo[2,3-b]pyrazine-7-carboxylic acid [(R)-2,2-dimethyl-1-(4-trifluoromethyl-piperidine-1-carbonyl)-propyl]-amide] stands 0.49 nM.
The same measure, in the same setting: under `N#CC1CN(C(=O)[C@H](NC(=O)c2c[nH]c3ncc(-c4ccc(C(F)(F)F)cc4)nc23)C2CC2)C1` [Example I-160, 2-(4-Trifluoromethyl-phenyl)-5H-pyrrolo[2,3-b]pyrazine-7-carboxylic acid [(R)-2-(3-cyano-azetidin-1-yl)-1-cyclopropyl-2-oxo-ethyl]-amide] stands 0.38 nM; under `N#CC1CCN(C(=O)[C@H](NC(=O)c2c[nH]c3ncc(C4CC4)nc23)C2CCCC2)CC1` [Example I-45, 2-Cyclopropyl-5H-pyrrolo[2,3-b]pyrazine-7-carboxylic acid [(R)-2-(4-cyano-piperidin-1-yl)-1-cyclopentyl-2-oxo-ethyl]-amide], 0.7 nM.
The same measure, in the same setting: in the case of `CN(C)c1ccc(-c2cnc3[nH]cc(C(=O)N[C@@H](C(=O)N4CC(C#N)C4)C4CC4)c3n2)cc1` [Example I-164, 2-(4-Dimethylamino-phenyl)-5H-pyrrolo[2,3-b]pyrazine-7-carboxylic acid [(R)-2-(3-cyano-azetidin-1-yl)-1-cyclopropyl-2-oxo-ethyl]-amide] it was ≤ 0.32 nM.

The values above are taken from patent publication US8518945B2, “Pyrrolopyrazine kinase inhibitors” (Hoffmann-La Roche Inc., priority 2010, dated 2013).
